Results published in patent publication US8933017B2, “CD44V6 peptides as inhibitors of bacterial infections” (Karlsruher Institut fur Technologie, priority 2009, dated 2015).

Tests used:
HT29 cells = experiment: Scattering assay (InIB-induced); type: cell-based, human; conditions: InIB 1 nM 48 h, antibody 100 μg/ml or peptide 100 ng/ml
Method: Scattering of HT29 cells was determined after treatment with InIB alone or together with a control peptide or a CD44v6 peptide or antibody as indicated. The magnification used was ×20.
HT29 cells were seeded at a concentration of 3×10^5 cells/well in a 6-well plate. They were then incubated with InIB (1 nM) for 48 h at 37° C. For the blocking experiments, CD44 anti-v6 antibodies (Biwa; 100 μg/ml) or a CD44v6 peptide (100 ng/ml) were added before addition of InIB. Pictures were taken using a phase contrast microscope 48 h after induction.

HeLa cells = experiment: Latex bead invasion assay (InIB-coated beads); type: cell-based, human; conditions: HeLa cells preincubated with peptide
Method: Control beads or beads coated with InIB (see experimental procedures) were incubated with HeLa cells. Cells were pretreated with a CD44v6 peptide having SEQ ID NO: 2 or a control peptide for one hour as indicated. Extracellular beads bind to a Cy3-labelled antibody and are stained red in immunofluorescence microscopy. In phase contrast microscopy both extracellular and intracellular beads are detected. The number of internalized beads (black) was counted in approximately a thousand cells and shown as intracellular beads/100 cells in the graph. The results are expressed as means±standard deviation of three independent experiments.
In1B-dependent c-Met and Erk phosphorylation was measured in HeLa cells transiently transfected with a control vector or a vector coding for a truncated version of ezrin deprived of the actin binding domain (ezΔABD or DN Ezrin). In these cells also the uptake of latex beads was determined as described in FIG. 4.
Coating of the beads with InIB was performed as is known in the art. Briefly, 25 μl of latex beads (4×10^8 beads/ml, Dynabeads M-450, Dynal, Invitrogen, Karlsruhe, Germany) were coated with goat anti-mouse IgG and then incubated with 0.5 ml of hybridoma cell supernatant of monoclonal anti-InIB antibody for 2 h at 4° C. […]

c-Met [1] = experiment: InIB-induced c-Met phosphorylation in HeLa and HT29 cells; type: cell-based, human; conditions: peptide 100 ng/ml 30 min before InIB 1 nM 5 min
Method: (§1) HeLa cells were induced with InIB (A) at a concentration of 1 nM for 5 min at 37° C. Pretreatment with a control peptide or a CD44v6 14-mer peptide having SEQ ID NO: 2 at a concentration of 100 ng/ml for 30 min was performed when indicated. Phosphorylation of c-Met and of Erk were measured as described in experimental procedures. The same experiments were performed with the HT29 cells (B). (C) HeLa cells were transfected with two different siRNA (v6-1 and v6-2, described in experimental procedures) to downregulate CD44v6 and with a control siRNA. 48 h after transfection, cells were starved for additional 24 h. InIB-induced c-Met and Erk phosphorylation were measured. The expression of CD44v6 was detected by Western Blot analysis. The numbers reflect-fold induction as determined by densitometric scanning (Image J program).
(§2) The human colon adenocarcinoma cell lines HT29 and the human cervix carcinoma cell line HeLa (American tissue culture collection, ATCC; Wesel, Germany. Accession no: CCL-2) were grown in Dulbecco's modified Eagle's medium (DMEM; Invitrogen, Karlsruhe, Germany) supplemented with 10% fetal calf serum (FCS; PAA Cölbe, Germany). The rat pancreatic carcinoma cell line BSp73AS and its transfectant BSp73ASs6 were grown in RMPI (Invitrogen, Karlsruhe, Germany) plus 10% FCS.
(§3) In all experiments cells were induced with 1 nM of InIB where indicated. […]

Erk [2] = experiment: InIB-induced Erk phosphorylation in HeLa and HT29 cells; type: cell-based, human; conditions: peptide 100 ng/ml 30 min before InIB 1 nM 5 min
Method: as §1, §2, §3

Erk [3] = experiment: InIB-induced Erk phosphorylation in ASs6 cells; type: cell-based, rat; conditions: peptide 100 ng/ml before InIB
Method: (§4) AS cells or ASs6 cells were induced with InIB as indicated (A) and ASs6 cells in addition with a CD44v6 14-mer peptide having SEQ ID NO: 1 or an unrelated (control) peptide (B). Erk phosphorylation (A,B) or c-Met phosphorylation (B) was determined. In (C), HeLa cells were induced either with HGF or InIB for 5 min at 37° C. CD44v6 was immunoprecipitated from the lysates and a Western Blot was performed using CD44v6 and c-Met antibodies as indicated. For control, an IgG antibody was used. The numbers reflect-fold induction as determined by densitometric scanning (Image J program).
as §2
(§5) In all experiments cells were induced with 1 nM of InIB where indicated. Induction was performed for 5 min at 37° C. Blocking experiments were performed by incubating the CD44v6 14-mer peptide having for example SEQ ID NO: 2 or SEQ ID NO: 1 (100 ng/ml) or the control peptide (100 ng/ml) for 30 min at 37° C. prior to induction with InIB. […]

c-Met [4] = experiment: InIB-induced c-Met phosphorylation in ASs6 cells; type: cell-based, rat; conditions: peptide 100 ng/ml before InIB
Method: as §4, §2, §5

| Substance | InIB-induced scattering (HT29 cells) | entry of InIB-coated beads (HeLa cells) | entry of InIB-coated beads blocked (HeLa cells) [%] | InIB-induced activation of c-Met (c-Met [1]) | downstream signaling monitored by Erk activation (Erk [2]) | InIB-induced Erk phosphorylation (Erk [3]) | InIB-induced c-Met phosphorylation (c-Met [4]) |
| --- | --- | --- | --- | --- | --- | --- | --- |
| KEQWFGNRWHEGYR (listed as Homo sapiens) [human CD44v6 14-mer peptide] | blocked | drastic decrease | ~100 | completely abrogated | inhibited | – | – |
| CD44v6 peptide having SEQ ID NO:1: CD44v6 14-mer peptide having SEQ ID NO: 1, used on rat ASs6 cells (KEKWFENEWQGKNP; listed as Rattus norvegicus) | – | – | – | – | – | abrogated | abrogated |
